Data on six compounds can be found in US20240116856A1 (Young BioPharma, LLC, priority 2020, published 2024).

Data set [1] addresses TRPV1 (Rattus norvegicus, UniProt O35433). The note with it: read-out: EC50 in Ca2+ influx assay, cited from earlier work.
For data set [2] the following is noted: literature; cited from earlier work.
In data set [3] the target is T1, human TRPV1 (Homo sapiens, UniProt Q8NER1).
T1 construct: DYK (FLAG) tag from vector pcDNA3.1+/C-(K)DYK (C); host or cells: FreeStyle 293-F cells (HEK 293), transient transfection
Description: In vitro Ca2+ flux assay in human TRPV1 transfected HEK 293 cells. Particulars: read-out: TRPV1 EC50. The format is cell-based. A general note: Calcium flux is commonly read through the fluorescence of an indicator in the cells.

The target of data set [4] is T2, human TRPV3 (Homo sapiens, UniProt Q8NET8).
T2 construct: expressed in transfected cells; host or cells: overexpressing cells
T2 sequence (Q8NET8 1-790): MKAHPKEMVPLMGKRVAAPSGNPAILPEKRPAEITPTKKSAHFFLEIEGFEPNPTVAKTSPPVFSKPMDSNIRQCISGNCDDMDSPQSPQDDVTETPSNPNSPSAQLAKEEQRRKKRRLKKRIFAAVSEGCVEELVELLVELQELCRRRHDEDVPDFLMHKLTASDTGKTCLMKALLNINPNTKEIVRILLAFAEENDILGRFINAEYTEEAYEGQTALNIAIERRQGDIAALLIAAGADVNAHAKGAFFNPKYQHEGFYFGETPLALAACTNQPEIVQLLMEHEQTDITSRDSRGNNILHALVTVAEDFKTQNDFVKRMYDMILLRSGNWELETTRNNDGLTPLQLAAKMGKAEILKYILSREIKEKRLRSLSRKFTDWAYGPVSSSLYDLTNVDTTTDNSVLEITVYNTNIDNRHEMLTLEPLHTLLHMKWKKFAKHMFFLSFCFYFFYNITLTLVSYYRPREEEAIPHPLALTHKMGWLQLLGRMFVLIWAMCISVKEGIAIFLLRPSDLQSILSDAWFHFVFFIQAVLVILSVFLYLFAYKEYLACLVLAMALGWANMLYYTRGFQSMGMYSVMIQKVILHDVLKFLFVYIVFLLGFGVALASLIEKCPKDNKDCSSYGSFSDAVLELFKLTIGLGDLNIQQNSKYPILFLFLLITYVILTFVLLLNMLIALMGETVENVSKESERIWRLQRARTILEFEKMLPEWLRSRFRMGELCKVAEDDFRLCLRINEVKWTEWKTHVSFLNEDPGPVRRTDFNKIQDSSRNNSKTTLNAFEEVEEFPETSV
Description: In vitro Ca2+ flux counter-screen in human TRPV3 overexpressing cells. In kind it is cell-based. Particulars: counter-screen; read-out: TRPV3 EC50.

The target of data set [5] is T3, human TRPA1 (Homo sapiens, UniProt O75762).
T3 construct: expressed in transfected cells; host or cells: overexpressing cells
Briefly: In vitro Ca2+ flux counter-screen in human TRPA1 overexpressing cells. In kind it is cell-based. Particulars: counter-screen; read-out: TRPA1 EC50.

The nature of data set [6]: Mouse liver microsome stability. The format is in vitro ADME. Particulars: liver microsomes, C57BL6 mouse liver microsome. On the technique in general: Liver microsomes are a subcellular fraction often used to study metabolism.
The nature of data set [7]: In vivo mouse PK. The note with it: IV 0.4 mg/kg, C57BL6 mouse.
Data set [8] has as its system MDA-MB-231. Description: Human cancer cell growth inhibition assay (ATP assay), MDA-MB-231. The format is cell-based. The note with it: Homo sapiens, MDA-MB-231, 96 h; 4 days; Means±SEM from three independent experiments; read-out: MDA-MB-231, IC50.
Data set [9] concerns NCI-H460. Description: Human cancer cell growth inhibition assay (ATP assay), NCI-H460. In kind it is cell-based. Particulars: Homo sapiens, NCI-H460, 96 h; 4 days; Means±SEM from three independent experiments; read-out: NCl-H460, IC50.
The subject of data set [10] is OVCAR-8. Briefly: Human cancer cell growth inhibition assay (ATP assay), OVCAR-8. In kind it is cell-based. The note with it: Homo sapiens, OVCAR-8, 96 h; 4 days; Means±SEM from three independent experiments; read-out: OVCAR-8, IC50.
Data set [11] has as its system MDA-MB-231 cell invasion. Briefly: Cancer cell invasion assay, MDA-MB-231. The format is cell-based, human. Particulars: 24 h. On the procedure: A cancer cell invasion assay was developed based on literature protocols (Methods 2005, 37, 208; EMBO J 2002, 21, 6289; Cellular Signalling 2012, 24, 1276.). Membrane matrix gel (Cat #A1413201, ThermoFisher) was diluted in ice-cold, serum-free RPMI 1640 Medium (Cat #31800022, ThermoFisher) at a concentration of 0.5-0.6 mg/mL. Then it was added to the upper compartment (100 μL per cup) of millicell inserts (Cat #PI8P01250, ThermoFisher) placed in a 24-well plate (Part no. 229123, Celltreat). The plate was incubated at 37° C. for 2 h to allow the liquid gel to solidify. RPMI 1640 Medium supplemented with 10% FBS (300 μL) was added to the well of the plate (lower compartment) as attractant, then DMSO or compounds were added. Human cancer cells (1×10^5 cells in 200 μL of RPMI 1640 Medium) were added to the upper compartment of the insert, then DMSO or compounds were added. After the plate was incubated at 37° C. for 24 h, the cells were fixed on the lower side of the insert membrane with 4% formaldehyde and stained with 1% crystal violet (Part no. IS12146, Innovating Science). The invaded cells on the lower side of the filter were counted under an inverted microscope equipped with either a 4× or a 10× objective (FIG. 11). The cell numbers from 5 random views were averaged and plotted as percentage against the DMSO control (FIG. 12A).

For data set [12] the following is noted: both, mouse, in vivo, 1 min.
Details of data set [13]: decrease in the second phase of the formalin test: dose or concentration left out as unconfirmed. The note with it: intraplantar.
Data set [14] concerns the target T4, TRPV1 (Mus musculus, UniProt Q704Y3).
T4 construct: DRG was isolated from male and female mice expressing GCaMP6f in neurons; endogenous in cells; host or cells: dissociated primary DRG neurons from GCaMP6f-expressing mice
Description: Ca2+ imaging of primary mouse dorsal root ganglion (DRG) neurons, TRPV1 desensitization. Particulars: then capsaicin 0.5 μM; for area under the curve of the Ca2+ signal of the second (capsaicin) application / max Ca2+ signal of the second (capsaicin) application: first treatment capsaicin 0.5 μM, YB-11 0.5 μM or YB-16 1.0 μM, paired t-test. In kind it is cell-based.

The nature of data set [15]: Operant Pain Tolerance Assay. In kind it is in vivo. Particulars: intraplantar. On the procedure: Model 3—The ability of YB-16 to increase pain tolerance was tested using a newly published Operant Pain Tolerance Assay (eNeuro 2020, 7, ENEURO.0210-19.2020). In the assay, mice were trained to seek a sucrose reward that was on a hot 42° C. plate (versus no reward on a neutral 30° C. plate). It was noticed that intraplantar YB-16 treated mice with paw inflammatory injury [induced by Complete Freund's adjuvant (CFA) 24 hrs prior to treatment] trended to spend 145% more time on the hot side of the assay but not necessarily additional time near the sucrose bottle compared to vehicle treated mice (FIG. 10B).

The conditions of data set [16]: SubQ 6 mg/kg.
[17] abbreviates: Means±SEM from three independent experiments.

“And” between values parts separate entries of the source, which are not always exact repeats. Identical values can stand only once. “Also recorded” adds a separate entry of the source. Like-named read-outs stand apart in the source and are kept apart here.

T1 sequence (Q8NER1 whole entry): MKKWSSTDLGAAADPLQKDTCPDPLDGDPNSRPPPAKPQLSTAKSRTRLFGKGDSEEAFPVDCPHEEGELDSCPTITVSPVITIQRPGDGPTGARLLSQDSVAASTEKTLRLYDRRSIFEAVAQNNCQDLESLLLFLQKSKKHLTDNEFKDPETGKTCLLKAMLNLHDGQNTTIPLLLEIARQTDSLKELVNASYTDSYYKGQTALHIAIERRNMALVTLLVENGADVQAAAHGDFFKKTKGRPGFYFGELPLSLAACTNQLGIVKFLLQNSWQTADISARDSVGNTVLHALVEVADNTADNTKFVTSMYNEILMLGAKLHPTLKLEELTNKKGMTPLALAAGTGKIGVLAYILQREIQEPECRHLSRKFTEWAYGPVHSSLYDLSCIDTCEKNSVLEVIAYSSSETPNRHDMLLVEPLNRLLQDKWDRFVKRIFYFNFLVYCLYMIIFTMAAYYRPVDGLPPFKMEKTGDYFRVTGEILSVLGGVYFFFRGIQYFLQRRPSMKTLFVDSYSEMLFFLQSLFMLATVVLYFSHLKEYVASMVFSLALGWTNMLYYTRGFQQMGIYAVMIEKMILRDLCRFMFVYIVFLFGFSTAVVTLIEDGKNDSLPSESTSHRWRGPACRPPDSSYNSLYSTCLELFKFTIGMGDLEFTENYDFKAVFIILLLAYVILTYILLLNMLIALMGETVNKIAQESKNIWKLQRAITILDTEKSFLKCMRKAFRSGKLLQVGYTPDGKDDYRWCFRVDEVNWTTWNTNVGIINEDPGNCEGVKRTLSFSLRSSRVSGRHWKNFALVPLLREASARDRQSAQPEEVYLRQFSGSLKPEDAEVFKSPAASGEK
T3 sequence (O75762 whole entry): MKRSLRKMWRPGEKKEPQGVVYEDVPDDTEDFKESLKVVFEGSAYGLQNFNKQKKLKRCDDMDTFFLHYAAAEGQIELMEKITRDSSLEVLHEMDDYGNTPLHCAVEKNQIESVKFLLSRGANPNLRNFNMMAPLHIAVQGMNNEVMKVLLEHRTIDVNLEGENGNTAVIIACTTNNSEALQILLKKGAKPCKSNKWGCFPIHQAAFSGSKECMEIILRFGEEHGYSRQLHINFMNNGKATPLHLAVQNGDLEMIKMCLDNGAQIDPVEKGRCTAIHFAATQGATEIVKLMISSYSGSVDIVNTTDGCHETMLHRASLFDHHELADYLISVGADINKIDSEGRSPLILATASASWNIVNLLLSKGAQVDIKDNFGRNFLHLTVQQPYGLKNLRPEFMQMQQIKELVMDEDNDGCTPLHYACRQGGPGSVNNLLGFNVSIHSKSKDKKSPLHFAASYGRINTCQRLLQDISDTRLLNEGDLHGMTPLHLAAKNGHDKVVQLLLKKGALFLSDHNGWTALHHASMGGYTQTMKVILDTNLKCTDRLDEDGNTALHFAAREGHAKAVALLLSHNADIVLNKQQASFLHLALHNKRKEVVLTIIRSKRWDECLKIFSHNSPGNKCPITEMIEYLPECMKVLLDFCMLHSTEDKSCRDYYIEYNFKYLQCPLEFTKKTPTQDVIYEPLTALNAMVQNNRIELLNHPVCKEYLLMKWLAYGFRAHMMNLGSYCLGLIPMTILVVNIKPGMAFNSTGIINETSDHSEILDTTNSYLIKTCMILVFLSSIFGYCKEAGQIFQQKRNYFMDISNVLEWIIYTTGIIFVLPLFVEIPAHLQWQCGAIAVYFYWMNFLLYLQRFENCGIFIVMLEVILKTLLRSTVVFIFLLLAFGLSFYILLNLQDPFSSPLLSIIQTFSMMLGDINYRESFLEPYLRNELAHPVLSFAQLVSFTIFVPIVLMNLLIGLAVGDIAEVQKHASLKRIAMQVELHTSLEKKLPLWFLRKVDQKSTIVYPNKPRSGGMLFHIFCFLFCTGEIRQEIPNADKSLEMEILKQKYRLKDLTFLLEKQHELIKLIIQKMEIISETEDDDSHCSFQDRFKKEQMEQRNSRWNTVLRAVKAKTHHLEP
T4 sequence (Q704Y3 whole entry): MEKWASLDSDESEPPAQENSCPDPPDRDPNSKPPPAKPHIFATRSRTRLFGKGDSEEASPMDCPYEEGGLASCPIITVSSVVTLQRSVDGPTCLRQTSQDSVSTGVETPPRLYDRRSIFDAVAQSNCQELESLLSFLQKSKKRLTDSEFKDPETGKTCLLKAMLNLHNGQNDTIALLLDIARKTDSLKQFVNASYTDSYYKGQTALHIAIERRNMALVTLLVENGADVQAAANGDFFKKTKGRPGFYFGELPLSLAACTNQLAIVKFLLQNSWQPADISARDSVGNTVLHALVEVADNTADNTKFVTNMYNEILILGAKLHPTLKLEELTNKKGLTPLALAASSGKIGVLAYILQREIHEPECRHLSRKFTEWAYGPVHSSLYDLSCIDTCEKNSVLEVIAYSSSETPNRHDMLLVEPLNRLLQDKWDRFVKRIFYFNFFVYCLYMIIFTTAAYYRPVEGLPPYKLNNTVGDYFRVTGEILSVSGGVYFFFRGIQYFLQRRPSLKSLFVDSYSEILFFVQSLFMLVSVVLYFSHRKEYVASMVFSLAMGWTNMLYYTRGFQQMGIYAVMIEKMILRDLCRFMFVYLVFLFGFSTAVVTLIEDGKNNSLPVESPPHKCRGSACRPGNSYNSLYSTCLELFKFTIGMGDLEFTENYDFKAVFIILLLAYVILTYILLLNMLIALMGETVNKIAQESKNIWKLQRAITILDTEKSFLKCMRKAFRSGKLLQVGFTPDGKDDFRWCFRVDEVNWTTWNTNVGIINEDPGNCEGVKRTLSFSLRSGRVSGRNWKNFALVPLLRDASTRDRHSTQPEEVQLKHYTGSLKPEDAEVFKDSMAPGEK
Chain of TRPV1 (Rattus norvegicus, UniProt O35433) (O35433 whole entry): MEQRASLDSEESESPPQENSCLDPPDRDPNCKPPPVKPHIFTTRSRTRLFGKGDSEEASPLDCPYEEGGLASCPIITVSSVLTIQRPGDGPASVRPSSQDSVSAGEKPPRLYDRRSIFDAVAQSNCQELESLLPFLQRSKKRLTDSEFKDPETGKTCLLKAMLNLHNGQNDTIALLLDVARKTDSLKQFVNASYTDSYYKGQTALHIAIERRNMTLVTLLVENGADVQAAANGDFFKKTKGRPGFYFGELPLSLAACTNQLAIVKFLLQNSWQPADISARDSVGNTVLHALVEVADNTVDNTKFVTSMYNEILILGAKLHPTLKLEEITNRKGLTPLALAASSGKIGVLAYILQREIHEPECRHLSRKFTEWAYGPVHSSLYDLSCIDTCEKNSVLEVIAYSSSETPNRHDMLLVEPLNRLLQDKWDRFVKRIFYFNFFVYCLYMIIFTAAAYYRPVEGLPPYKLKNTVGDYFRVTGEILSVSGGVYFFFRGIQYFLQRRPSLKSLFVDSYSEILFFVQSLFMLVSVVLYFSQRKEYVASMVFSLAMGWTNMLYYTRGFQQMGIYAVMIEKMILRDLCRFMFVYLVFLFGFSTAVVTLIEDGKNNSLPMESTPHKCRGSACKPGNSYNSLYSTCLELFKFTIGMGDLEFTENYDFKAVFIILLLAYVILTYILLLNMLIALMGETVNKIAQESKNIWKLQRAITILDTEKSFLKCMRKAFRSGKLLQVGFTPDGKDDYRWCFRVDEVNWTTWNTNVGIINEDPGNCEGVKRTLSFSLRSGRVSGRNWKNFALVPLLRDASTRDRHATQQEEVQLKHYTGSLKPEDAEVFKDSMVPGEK

In the case of `CCCCCCCCC(=O)NCc1ccc(N)c(OC)c1` [N-[(4-amino-3-methoxyphenyl)methyl]-Nonanamide], the EC50 in [1] (as reported in literature) was > 10 µM.
With `C=C(C)[C@]12C[C@@H](C)[C@@]34O[C@](Cc5ccccc5)(O[C@@H]1[C@@H]3C=C(COC(=O)Cc1ccc(O)c(OC)c1)C[C@]1(O)C(=O)C(C)=C[C@@H]41)O2` [Resiniferatoxin (RTX), Resiniferatoxin], the “solubility in water” value in [2] is “insoluble in water”.
For the compound `COc1cc(CNC(=O)CCCC/C=C/C(C)C)ccc1N` [YB-2], the 50% effective concentration (EC50) in data set [3] (setting [17]) is < 0.1 µM; in data set [3] (Table 3 comparison, YB-2 tested as a HCl salt) it was 0.082 µM; in [4], > 10 µM; in [5], > 10 µM. Besides, in data set [6], the intrinsic clearance (CLint scaled) at 2 μM is 1780 mL/min/kg. Moreover, the “λz” value in data set [7] came out at 4.1 h⁻¹. For the same compound, the results for the concentration for half-maximal inhibition (IC50) in data set [8], in [9] and in data set [10] were 342 ± 30 µM, 350 ± 25 µM and 200 ± 22 µM, respectively. For the same compound, the “inhibition of MDA-MB-231 cell invasion” value in data set [11] is “dose-dependently inhibited”. Besides, the MPP in [12] amounted to 0.233 mg/mL. For the same compound, in data set [13], the “animal death and sedation in formalin test” value (“animal death and sedation” for short) is “No mice treated with YB-16, YB-11 or YB-2 died or experienced sedative reaction”. Besides, the “effect in the second phase of the formalin test” value in data set [13] (2 hr prior to formalin) is on record as “significant analgesic effect in the second phase for male mice only”. For the same compound, the “effect on formalin spontaneous pain-like behavior” value in [13] (2 hr prior to formalin) is recorded as “did not reduce formalin behavior at any dose tested”.
In the case of `COc1cc(CC(=O)N/C=C/c2ccc(C(F)(F)F)cc2)ccc1O` [YB-11], the EC50 is < 0.1 µM and 0.012 to 0.048 µM and 0.012 µM in data set [3] (setting [17]); > 10 µM in [4]; > 10 µM in data set [5]. For the same compound, the “TRPV1-sensitive neurons showing desensitization” value in data set [14] (first treatment 0.5 μM) was determined as 67%. In [14], the “area under the curve of the Ca2+ signal of the second (capsaicin) application” value is reported as “statistically significant reduction; also recorded: significantly reduced”. In addition, the “max Ca2+ signal of the second (capsaicin) application” value in data set [14] is recorded as “statistically significant reduction; also recorded: significantly reduced”. The IC50 stood at 129 ± 21 µM in data set [8], 87 ± 10 µM in data set [9] and 65 µM in data set [10]. For the same compound, the “inhibition of MDA-MB-231 cell invasion” value in data set [11] is reported as “dose-dependently inhibited”. In data set [12], this compound yielded an MPP of 0.101 mg/mL. Also, the “animal death and sedation” value in data set [13] is given as “No mice treated with YB-16, YB-11 or YB-2 died or experienced sedative reaction”. In addition, the “reduction of formalin first phase behavior” value in data set [13] (10 g, 2 hr prior to formalin) turned out to be 36%.
As for `COCCOCCOCCC(=O)Oc1ccc(CC(=O)N/C=C/c2ccc(C(F)(F)F)cc2)cc1OC` [YB-16], the EC50 in data set [3] (setting [17]) is 0.93 µM; in data set [4] it was > 10 µM; in data set [5], > 10 µM. Also, the “TRPV1-sensitive neurons showing desensitization” value in data set [14] (first treatment 1.0 μM) stood at 79%. In addition, the “area under the curve of the Ca2+ signal of the second (capsaicin) application” value in [14] is reported as “statistically significant reduction; also recorded: significantly reduced”. The “max Ca2+ signal of the second (capsaicin) application” value in data set [14] is on record as “statistically significant reduction; also recorded: significantly reduced”. In data set [15], the “sedation in operant pain tolerance assay” value was “inflammatory injury with no sedation”. For the same compound, the “sensitivity to hot plate after inflammatory injury” value in data set [15] (paw inflammatory injury (CFA)) is “trended to reduce sensitivity to hot plate after inflammatory injury compared to vehicle; also recorded: trended to increase time in a 42 °C chamber; also recorded: Trend for reduced sensitivity to hot”. Also, the IC50 in data set [8] is > 100 µM; in data set [9], > 100 µM; in data set [10], 16 µM. The same compound had an MPP in [12] of 0.302 mg/mL. Moreover, the “animal death and sedation” value in data set [13] was “No mice treated with YB-16, YB-11 or YB-2 died or experienced sedative reaction”. In addition, the “decrease in the second phase of the formalin test” value in [13] (2 hr prior to formalin) stood at 54%. The “reduction of formalin first phase behavior” value in [13] (2 hr prior to formalin) is reported as 60%. In data set [16], the “MPE (maximum possible effect) increase compared to vehicle” value amounted to 270%.
On to `COc1cc(CN(C)C(=O)CCCCC=CC(C)C)ccc1O` [capsaicin analog 3d], for which the EC50 in [1] was > 100 µM.

The term EC50 denotes the concentration that produces a half-maximal response. In general, CLint scaled refers to a measure of how fast metabolising enzymes remove a compound, apart from limits set by blood flow. In general, IC50 refers to the concentration needed to halve the response being measured.
